Target: T1, human leukocyte elastase (HLE) (Homo sapiens, UniProt P08246)
T1 construct: purchased Calbiochem Lot 702038
T1 sequence (P08246 30-267): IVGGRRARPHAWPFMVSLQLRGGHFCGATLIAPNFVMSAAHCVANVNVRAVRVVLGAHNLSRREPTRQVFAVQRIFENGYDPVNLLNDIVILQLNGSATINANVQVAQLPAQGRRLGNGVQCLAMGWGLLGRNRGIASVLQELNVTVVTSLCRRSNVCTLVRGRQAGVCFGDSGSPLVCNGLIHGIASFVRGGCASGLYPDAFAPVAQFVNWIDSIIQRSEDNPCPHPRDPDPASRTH
Experiment: Kinetic parameters for HLE inhibition (release of 7-amino-4-methylcoumarin from N-methoxysuccinyl-alanylprolyl-valyl-7-amido-4-methylcoumarin, fluorescence detection)
Assay type: biochemical
Details: 37° C., 0.027 M pH 7.4 phosphate buffer, 1% DMSO, 1% MeCN, NaCl (I=0.15); for kon: read-out: kon (rate of formation of the HLE-inhibitor complex); for Ki: steady state, read-out: Ki^ss (apparent dissociation constant of the HLE-inhibitor complex at steady state)
Text: Km =Michaelis constant for the enzyme-substrate pair (independently determined under the same experimental conditions).

Row | kon | Ki | SMILES
1 | 480000 M⁻¹ s⁻¹ | 2.6 nM | CC(=O)OCC1=C(C(=O)SC(C)(C)C)N2C(=O)[C@H](Cl)[C@H]2S(=O)(=O)C1 [Comp. 3]
2 | 150000 M⁻¹ s⁻¹ | 16 nM | COCC1=C(C(=O)SC(C)(C)C)N2C(=O)[C@H](Cl)[C@H]2S(=O)(=O)C1 [Comp. 59, t-Butyl 7S-chloro-3-methoxymethyl-8-oxo-5-thia-1-azabicyclo [4,2,0]oct-2-ene-5,5-dioxide-2-carbothiolate]
3 |  | 4.3 nM | Cn1nnnc1SCC1=C(C(=O)SC(C)(C)C)N2C(=O)[C@H](Cl)[C@H]2S(=O)(=O)C1 [Comp. 60, t-Butyl 7S-chloro-3-(1-methyl-1,2,3,4-tetrazol-5-yl) thiomethyl-8-oxo-5-thia-1-azabicyclo[4,2,0]oct-2-ene-5,5-dioxide-2-carbothiolate]

Row | SMILES | kon | Ki
4 | CC(=O)OCC1=C(C(=O)SCc2ccccc2)N2C(=O)[C@H](Cl)[C@H]2S(=O)(=O)C1 [Comp. 11, Benzyl 3-acetoxymethyl-7S-chloro-8-oxo-5-thia-1-azabicyclo-[4,2,0]oct-2-ene-5,5-dioxide-2-carbothiolate] | 1.26e+06 M⁻¹ s⁻¹ | 8.2 nM
